Laboratory results from patent US20240101544A1, “INHIBITORS OF QPCTL AND QPCT” (priority 2022, published 2024).

Columns and labels:
QPCTL = QPCTL (Homo sapiens (Human), UniProt Q9NXS2); assay: QPCTL Enzymatic Activity Assay (coupled-enzyme fluorescent assay, H-Gln-AMC substrate); type: biochemical; settings: recombinant truncated human QPCTL 10-12 nM, 10 μM H-Gln-AMC; read-out: QPCTL Inhibition IC50
Experimental: Protein expression was induced when the bacterial culture OD600 was approximately 0.7 using 1 mM IPTG and the cells incubated at 20° C. for approximately 16 hours. The QPCTL was purified using nickel column purification, digested by TEV, followed by a second nickel column purification. The protein was further purified by size-exclusion chromatography using a Superdex™ 75 column. The final protein was concentrated using ultrafiltration tubes at a molecular weight cutoff of 10 kilodaltons and stored frozen in protein buffer (25 mM Tris pH 8.3, 150 mM NaCl).
QPCTL activity was measured in a coupled-enzyme assay using the QPCTL substrate, glutamine-7-amido-4-methylcoumarin (H-Gln-AMC, Bachem), which is converted to pyroglutamyl-AMC by QPCTL. Pyroglutamyl-AMC is then converted to the fluorescent molecule, AMC, by incubation with the human enzyme pyroglutamyl peptidase-1. […] Final concentrations of DMSO and test compounds were 2% and 30-100 μM, respectively. Following the incubation, H-Gln-AMC substrate was diluted in assay buffer and added to each well for a final concentration of 10 μM. The reaction was incubated for 60 min at 37° C., before stopping it by boiling at 100° C. for 5 minutes and cooling the plate at 4° C. for 3 minutes. […] Following incubation, the fluorescence was measured with a plate reader using excitation at 380 nm and emission at 460 nm. […] Concentration-response-curves and IC50 values (Table 17) were generated using curve fit software.

QPCT (rhQPCT) = QPCT (rhQPCT) (Homo sapiens (Human), UniProt Q16769); assay: QPCT Enzymatic Activity Assay (coupled-enzyme fluorescent assay, H-Gln-AMC substrate); type: biochemical; settings: rhQPCT 10-12 nM, 10 μM H-Gln-AMC; read-out: QPCT Inhibition IC50
Chain of QPCT (rhQPCT) (Q16769 29-361): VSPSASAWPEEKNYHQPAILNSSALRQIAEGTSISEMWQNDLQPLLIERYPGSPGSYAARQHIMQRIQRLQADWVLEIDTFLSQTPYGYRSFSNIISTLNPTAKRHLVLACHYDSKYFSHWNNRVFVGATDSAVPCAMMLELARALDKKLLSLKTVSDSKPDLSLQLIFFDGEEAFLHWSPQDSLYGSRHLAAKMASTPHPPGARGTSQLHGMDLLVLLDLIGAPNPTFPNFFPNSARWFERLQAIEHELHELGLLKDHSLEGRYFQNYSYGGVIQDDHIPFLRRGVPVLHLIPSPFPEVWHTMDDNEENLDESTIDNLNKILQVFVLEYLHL
Experimental: QPCT activity was measured in a coupled-enzyme assay using the QPCT substrate, glutamine-7-amido-4-methylcoumarin (H-Gln-AMC, Bachem), which is converted to pyroglutamyl-AMC by QPCT. Pyroglutamyl-AMC is then converted to the fluorescent molecule, AMC, by incubation with the human enzyme pyroglutamyl peptidase-1 (PGPEP-1). […] Following the incubation, H-Gln-AMC substrate was diluted in assay buffer and added to each well for a final concentration of 10 μM. The reaction was incubated for 60 min at 37° C., before stopping it by boiling at 100° C. for 5 minutes and cooling the plate at 4° C. for 3 minutes. […] Following incubation, the fluorescence was measured with a plate reader using excitation at 380 nm and emission at 460 nm. […] Concentration-response-curves and IC50 values (Table 17) were generated using Collaborative Drug Discovery software.

Chain of QPCTL (Q9NXS2 53-382): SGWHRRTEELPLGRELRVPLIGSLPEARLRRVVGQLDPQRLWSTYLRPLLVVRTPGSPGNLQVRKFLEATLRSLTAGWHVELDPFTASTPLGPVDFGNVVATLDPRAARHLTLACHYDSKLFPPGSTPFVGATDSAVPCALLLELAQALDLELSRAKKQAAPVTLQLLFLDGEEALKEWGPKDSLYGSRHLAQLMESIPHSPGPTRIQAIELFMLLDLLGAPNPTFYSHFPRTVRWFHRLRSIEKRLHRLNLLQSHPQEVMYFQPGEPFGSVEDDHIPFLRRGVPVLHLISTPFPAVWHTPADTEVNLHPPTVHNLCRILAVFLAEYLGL

Row | Structure (SMILES) | IC50 (QPCTL) | IC50 (QPCT (rhQPCT))
1 | COc1ccncc1-c1ccc(-c2ccccc2)c(C#N)c1N1CCC(c2nncn2C)CC1 [Example 32, 4-(4-methoxypyridin-3-yl)-3-[4-(4-methyl-4H-1,2,4-triazol-3-yl)piperidin-1-yl]-[1,1′-biphenyl]-2-carbonitrile] | < 0.1 µM | < 0.1 µM
2 | Cn1cnnc1C1[C@H]2CN(c3c(C#N)cccc3-c3ccc(F)nc3)C[C@@H]12 (stereo partly drawn) [Example 75, 3-(6-fluoropyridin-3-yl)-2-((1R,5S)-6-(4-methyl-4H-1,2,4-triazol-3-yl)-3-azabicyclo[3.1.0]hexan-3-yl)benzonitrile] | 0.1 to 1 µM | 0.1 to 1 µM
3 | COc1cnc(-c2ccc(F)nc2)c(N2CCC(c3nncn3C)CC2)c1C#N [Example 137, 6′-fluoro-5-methoxy-3-(4-(4-methyl-4H-1,2,4-triazol-3-yl)piperidin-1-yl)-[2,3′-bipyridine]-4-carbonitrile] | 1 to 10 µM | 0.1 to 1 µM
4 | COc1ccncc1-c1cccc(C#N)c1N1CCC(n2ccnc2)CC1 [Example 13, 2-[4-(1H-imidazol-1-yl)piperidin-1-yl]-3-(4-methoxypyridin-3-yl)benzonitrile] | 1 to 10 µM | 0.1 to 1 µM
5 | Cn1ccc(-c2ccc(-c3cncc(B(O)O)c3)c(N3CCC(c4nncn4C)CC3)c2C#N)n1 [Example 126, (5-(3-cyano-4-(1-methyl-1H-pyrazol-3-yl)-2-(4-(4-methyl-4H-1,2,4-triazol-3-yl)piperidin-1-yl)phenyl)pyridin-3-yl)boronic acid] | < 0.1 µM | < 0.1 µM
6 | Cn1cnnc1C1CCN(c2c(C#N)cccc2-c2cncc(OS(=O)(=O)F)c2)CC1 [Example 118, 5-(3-cyano-2-(4-(4-methyl-4H-1,2,4-triazol-3-yl)piperidin-1-yl)phenyl)pyridin-3-yl sulfurofluoridate] | < 0.1 µM | < 0.1 µM
7 | Cc1cc(-c2c(F)ccc(C#N)c2N2CCC(c3nncn3C)CC2)cnc1F [Example 53, 4-fluoro-3-(6-fluoro-5-methylpyridin-3-yl)-2-(4-(4-methyl-4H-1,2,4-triazol-3-yl)piperidin-1-yl)benzonitrile] | < 0.1 µM | < 0.1 µM
8 | Cn1cnnc1C1CCN(c2c(C#N)cccc2-c2cnnn2C)CC1 [Example 104, 3-(1-methyl-1H-1,2,3-triazol-5-yl)-2-(4-(4-methyl-4H-1,2,4-triazol-3-yl)piperidin-1-yl)benzonitrile] | 0.1 to 1 µM | 0.1 to 1 µM
9 | COc1ccncc1-c1cccc(C#N)c1N1CCC(c2cnc(N)s2)CC1 [Example 17, 2-[4-(2-amino-1,3-thiazol-5-yl)piperidin-1-yl]-3-(4-methoxypyridin-3-yl)benzonitrile] | 0.1 to 1 µM | 0.1 to 1 µM
10 | Cc1cc(-c2ccc(-c3ccn(C)n3)c(C#N)c2N2CCC(c3nncn3C)CC2)cnn1 [Example 61, 6-(1-methyl-1H-pyrazol-3-yl)-2-(4-(4-methyl-4H-1,2,4-triazol-3-yl)piperidin-1-yl)-3-(6-methylpyridazin-4-yl)benzonitrile] | < 0.1 µM | < 0.1 µM
11 | Cn1ncc(-c2cccc(C#N)c2N2CCC(c3nncn3C)CC2)n1 [Example 99, 3-(2-methyl-2H-1,2,3-triazol-4-yl)-2-(4-(4-methyl-4H-1,2,4-triazol-3-yl)piperidin-1-yl)benzonitrile] | 0.1 to 1 µM | < 0.1 µM
12 | Cn1cnnc1C1CCN(c2c(C#N)cccc2-c2cnccn2)CC1 [Example 5, 2-[4-(4-methyl-4H-1,2,4-triazol-3-yl)piperidin-1-yl]-3-(pyrazin-2-yl)benzonitrile] | 0.1 to 1 µM | 0.1 to 1 µM
13 | Cn1cnnc1C1CCN(c2c(C#N)cccc2-c2cncc3c2OCCN3)CC1 [Example 20, 2-[4-(4-methyl-4H-1,2,4-triazol-3-yl)piperidin-1-yl]-3-{2H,3H,4H-pyrido[4,3-b][1,4]oxazin-8-yl}benzonitrile] | 0.1 to 1 µM | < 0.1 µM
14 | COc1ccncc1-c1cccc(C#N)c1N1CCC(c2cncs2)CC1 [Example 14, 3-(4-methoxypyridin-3-yl)-2-[4-(1,3-thiazol-5-yl)piperidin-1-yl]benzonitrile] | 0.1 to 1 µM | 0.1 to 1 µM
15 | Cn1cnnc1C1CCN(c2c(C#N)cccc2-c2cnccc2O)CC1 [Example 7, 3-(4-hydroxypyridin-3-yl)-2-[4-(4-methyl-4H-1,2,4-triazol-3-yl)piperidin-1-yl]benzonitrile] | 1 to 10 µM | 1 to 10 µM
16 | Cn1cnnc1C1CCN(c2c(C#N)cccc2-c2cncc3c2OCCN3CCO)CC1 [Example 23, 3-[4-(2-hydroxyethyl)-2H,3H,4H-pyrido[4,3-b][1,4]oxazin-8-yl]-2-[4-(4-methyl-4H-1,2,4-triazol-3-yl)piperidin-1-yl]benzonitrile] | 0.1 to 1 µM | 0.1 to 1 µM
17 | Cc1cc(-c2c(F)ccc(C#N)c2N2CCC(c3nncn3C)CC2)cnn1 [Example 59, 4-fluoro-2-(4-(4-methyl-4H-1,2,4-triazol-3-yl)piperidin-1-yl)-3-(6-methylpyridazin-4-yl)benzonitrile] | 0.1 to 1 µM | 0.1 to 1 µM
18 | Cn1cnnc1C1CCN(c2c(C#N)cccc2-c2cccc(C=O)c2)CC1 [Example 110, 3′-formyl-2-(4-(4-methyl-4H-1,2,4-triazol-3-yl)piperidin-1-yl)-[1,1′-biphenyl]-3-carbonitrile] | 0.1 to 1 µM | < 0.1 µM

Continued, values first:

Row | IC50 (QPCTL) | IC50 (QPCT (rhQPCT)) | Structure (SMILES)
19 | < 0.1 µM | < 0.1 µM | [2H]C([2H])([2H])n1cnnc1C1CCN(c2c(-c3ccc(F)nc3)ccc(-c3cnn(C)c3)c2C#N)CC1 [Example 54, 3-(6-fluoropyridin-3-yl)-6-(1-methyl-1H-pyrazol-4-yl)-2-(4-(4-(methyl-d3)-4H-1,2,4-triazol-3-yl)piperidin-1-yl)benzonitrile]
20 | 0.1 to 1 µM | 0.1 to 1 µM | N#Cc1cccc(-c2ccc(F)nc2)c1N1CCC(c2nncs2)CC1 [Example 72, 2-(4-(1,3,4-thiadiazol-2-yl)piperidin-1-yl)-3-(6-fluoropyridin-3-yl)benzonitrile]
21 | < 0.1 µM | < 0.1 µM | Cn1cnnc1C1CCN(c2c(C#N)cccc2-c2cnnc(O)c2)CC1 [Example 52, 3-(6-hydroxypyridazin-4-yl)-2-(4-(4-methyl-4H-1,2,4-triazol-3-yl)piperidin-1-yl)benzonitrile]
22 | < 0.1 µM | < 0.1 µM | Cn1cnnc1C1CCN(c2c(C#N)cccc2-c2ccc(O)nc2)CC1 [Example 116, 3-(6-hydroxypyridin-3-yl)-2-(4-(4-methyl-4H-1,2,4-triazol-3-yl)piperidin-1-yl)benzonitrile]
23 | < 0.1 µM | < 0.1 µM | Cn1cnnc1C1CCN(c2c(C#N)cccc2-c2ccc3[nH]nc(O)c3c2)CC1 [Example 113, 3-(3-hydroxy-1H-indazol-5-yl)-2-(4-(4-methyl-4H-1,2,4-triazol-3-yl)piperidin-1-yl)benzonitrile]
24 | 1 to 10 µM | 1 to 10 µM | Cn1cnnc1C1CCN(c2c(C#N)cc(F)cc2-c2ccc(F)nc2)CC1 [Example 130, 5-fluoro-3-(6-fluoropyridin-3-yl)-2-(4-(4-methyl-4H-1,2,4-triazol-3-yl)piperidin-1-yl)benzonitrile]
25 | < 0.1 µM | 0.1 to 1 µM | Cn1cnnc1C1CCN(c2c(C#N)cccc2-c2ccc(Cl)nc2)CC1 [Example 40, 3-(6-chloropyridin-3-yl)-2-[4-(4-methyl-4H-1,2,4-triazol-3-yl)piperidin-1-yl]benzonitrile]
26 | < 0.1 µM | < 0.1 µM | [2H]C([2H])([2H])n1cnnc1C1CCN(c2c(-c3ccc(F)nc3)ccc(Cl)c2C#N)CC1 [Example 56, 6-chloro-3-(6-fluoropyridin-3-yl)-2-(4-(4-(methyl-d3)-4H-1,2,4-triazol-3-yl)piperidin-1-yl)benzonitrile]
27 | 0.1 to 1 µM | < 0.1 µM | Cn1cnnc1C1CCN(c2c(C#N)c(C3CC3)cc(F)c2-c2ccc(F)nc2)CC1 [Example 135, 6-cyclopropyl-4-fluoro-3-(6-fluoropyridin-3-yl)-2-(4-(4-methyl-4H-1,2,4-triazol-3-yl)piperidin-1-yl)benzonitrile]
28 | < 0.1 µM | < 0.1 µM | Cc1cc(-c2ccc(-c3cn[nH]c3)c(C#N)c2N2CCC(c3nncn3C)CC2)cnn1 [Example 74, 2-(4-(4-methyl-4H-1,2,4-triazol-3-yl)piperidin-1-yl)-3-(6-methylpyridazin-4-yl)-6-(1H-pyrazol-4-yl)benzonitrile]
